Values of other authors in US20180255771A1, “CONTROLLED GAS PHASE RELEASE OF NON AQUEOUS PHASE LIQUID ESSENTIAL OIL COMPOUNDS FOR AROMATHERAPY, FRAGRANCE AND INSECTICIDAL ACTIVITY” (priority 2015, published 2018).

Tests used:
Ixodes ricinus = conditions: for repellency to Ixodes ricinus: 1 ug dose; for repellency to Ixodes ricinus compared with DEET: 10 ug dose
[1] = at 20° C.
[2] = USEPA conclusion

CCN(CC)C(=O)c1cccc(C)c1 [DEET, N,N-diethyl-meta-toluamide]
repellency to Ixodes ricinus (Ixodes ricinus): not reported to be effective
vapor pressure [1]: 0.0056 mm Hg
risks to humans or the environment [2]: will generally not cause unreasonable risks

Cc1ccc(O)c(O)c1 [4-Methyl-1,2-benzenediol]
repellency to Ixodes ricinus compared with DEET (Ixodes ricinus): as repellent as DEET

C=CCc1ccc(O)c(OC)c1 [eugenol]
repelling ticks (Ixodes ricinus) compared with DEET (Ixodes ricinus; 100 ug dose, DEET at a 100 ug dose): as effective at repelling ticks

C=CCc1cc(OC)c(O)c(OC)c1 [4-Allyl-2,6-dimethoxyphenol]
repellency to Ixodes ricinus compared with DEET (Ixodes ricinus): as repellent as DEET

CCc1ccc(O)c(O)c1 [4-Ethyl-1,2-benzenediol]
repellency to Ixodes ricinus (Ixodes ricinus): statistically significantly more repellent
repellency to Ixodes ricinus compared with DEET (Ixodes ricinus): as repellent as DEET
